Test results published in US7763596B2, “Selective glucocorticoid receptor agonists” (The University of Manchester, priority 2000, dated 2010).
Residue numbers refer to the chain shown, from its start.

Assays:
[1] = target: T1, glucocorticoid receptor (Homo sapiens, UniProt P04150); set-up: expressed in transfected cells; host or cells: COS 7 (African green monkey kidney, deficient in endogenous GR); conditions: in-vitro, other investigators; cited from earlier work
T1 sequence (P04150 1-777): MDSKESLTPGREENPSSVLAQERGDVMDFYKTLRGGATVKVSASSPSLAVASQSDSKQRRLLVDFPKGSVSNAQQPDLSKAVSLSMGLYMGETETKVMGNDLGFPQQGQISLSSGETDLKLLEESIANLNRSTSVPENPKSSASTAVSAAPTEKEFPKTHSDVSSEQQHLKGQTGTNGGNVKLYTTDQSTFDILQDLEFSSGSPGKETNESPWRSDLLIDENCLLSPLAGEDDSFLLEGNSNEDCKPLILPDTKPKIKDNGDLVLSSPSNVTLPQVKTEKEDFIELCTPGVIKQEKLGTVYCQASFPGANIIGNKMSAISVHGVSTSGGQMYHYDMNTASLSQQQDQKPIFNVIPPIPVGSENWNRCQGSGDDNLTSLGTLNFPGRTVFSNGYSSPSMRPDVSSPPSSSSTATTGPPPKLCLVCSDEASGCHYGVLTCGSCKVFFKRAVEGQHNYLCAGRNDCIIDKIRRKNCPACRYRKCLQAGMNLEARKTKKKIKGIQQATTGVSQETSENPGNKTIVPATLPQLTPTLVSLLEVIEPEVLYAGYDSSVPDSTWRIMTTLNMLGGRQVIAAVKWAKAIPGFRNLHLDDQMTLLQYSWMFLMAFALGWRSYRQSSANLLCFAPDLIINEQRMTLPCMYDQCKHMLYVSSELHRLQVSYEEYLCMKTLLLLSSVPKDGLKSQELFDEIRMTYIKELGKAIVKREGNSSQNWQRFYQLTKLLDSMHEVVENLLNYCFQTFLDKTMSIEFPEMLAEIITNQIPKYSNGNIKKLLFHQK

[2] = cited from earlier work
[3] = test system: CEM-C7A cells; assay: Apoptosis assay in CEM-C7A cells (viable cell count, MTS); assay type: cell-based, human
Method: The CEM-C7A cell line is a steroid sensitive clone of the CCRF-CEM cell line (ECACC 85112105). This is a T lymphoblastoid cell line with functional endogenous GR.
Apoptosis (programmed cell death) is mediated by a protein called Bax the transcription of which is primarily controlled by the GR in a ligand dependant manner. To measure the ability of a GR ligand to effect apoptosis a suitable cell line was incubated with ligand and a viable cell count was performed after three days.
CEM-C7A cells were plated out on to a 96well plate at 5×10^5/well. The steroids of FIGS. 1 and 2A were added immediately to generate a final concentration of 100 nM. After a three day incubation the live cell number in each well was assessed using Celltiter 96 Aqueous Non-Radioactive Cell Proliferation Assay (Promega). This assay is a calorimetric method for determining the number of viable cells in proliferation or chemosensitivity assays.
Briefly, the assay is composed of solutions of a novel tetrazolium compound (3-(4,5-dimethylthiazol-2-yl)-5-(3-carboxymethoxyphenyl)-2-(4-sulfophenyl)-2H-tetrazolium, MTS) and an electron coupling reagent (phenazine methosulfate; PMS). MTS is bioreduced by cells into a formazan product that is soluble in tissue culture medium. The absorbance of the formazan at 490 nm can be measured directly from 96 well assay plates without additional processing. The conversion of MTS into aqueous, soluble formazan is accomplished by dehydrogenase enzymes found in metabolically active cells. The quantity of formazan product as measured by the amount of 490 nm absorbance is directly proportional to the number of living cells in culture.

[4] = target: T2, progesterone receptor (PRB) (Homo sapiens, UniProt P06401); assay: Progestogen activity assay using progesterone receptor transactivation; assay type: cell-based; conditions: unpublished data, conditions not given
T2 construct: expressed in transfected cells; host or cells: COS 7
T2 sequence (P06401 1-933): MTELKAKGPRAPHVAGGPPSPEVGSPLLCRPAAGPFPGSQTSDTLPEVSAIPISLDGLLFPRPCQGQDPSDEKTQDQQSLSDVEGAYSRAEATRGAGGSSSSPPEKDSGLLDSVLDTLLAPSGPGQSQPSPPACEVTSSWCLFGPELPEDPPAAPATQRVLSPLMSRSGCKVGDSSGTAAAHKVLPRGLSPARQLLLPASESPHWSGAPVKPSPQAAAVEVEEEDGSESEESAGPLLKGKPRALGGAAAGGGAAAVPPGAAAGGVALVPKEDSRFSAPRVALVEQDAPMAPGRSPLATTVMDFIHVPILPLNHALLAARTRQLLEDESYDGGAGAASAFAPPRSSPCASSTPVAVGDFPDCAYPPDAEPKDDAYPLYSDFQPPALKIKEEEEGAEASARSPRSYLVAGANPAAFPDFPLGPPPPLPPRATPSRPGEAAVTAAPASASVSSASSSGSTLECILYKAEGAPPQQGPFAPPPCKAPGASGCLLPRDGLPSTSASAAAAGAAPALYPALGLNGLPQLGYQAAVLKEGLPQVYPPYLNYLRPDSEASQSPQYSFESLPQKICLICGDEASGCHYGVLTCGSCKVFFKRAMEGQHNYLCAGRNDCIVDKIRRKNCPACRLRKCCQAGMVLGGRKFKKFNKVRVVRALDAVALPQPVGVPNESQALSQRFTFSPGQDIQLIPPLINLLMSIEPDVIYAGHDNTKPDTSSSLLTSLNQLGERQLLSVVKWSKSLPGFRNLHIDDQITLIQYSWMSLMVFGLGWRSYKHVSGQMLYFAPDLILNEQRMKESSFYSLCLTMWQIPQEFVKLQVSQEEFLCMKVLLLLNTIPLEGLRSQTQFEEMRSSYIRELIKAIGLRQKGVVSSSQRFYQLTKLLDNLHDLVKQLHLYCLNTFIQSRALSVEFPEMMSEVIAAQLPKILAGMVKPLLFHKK

[5] = target: T3, GR Tyr735ser (Homo sapiens, UniProt P04150, Y735S); assay: Transactivation of the MMTV promoter by mutant GR Tyr735ser; assay type: cell-based; conditions: 100 nM
T3 construct: expressed in transfected cells
T3 sequence (P04150 1-777 Y735S): T1 sequence (P04150 1-777) with Y735S

[6] = target: T4, GR Tyr735phe (Homo sapiens, UniProt P04150, Y735F); assay: Transactivation of the MMTV promoter by mutant GR Tyr735phe; assay type: cell-based; conditions: 100 nM
T4 construct: expressed in transfected cells
T4 sequence (P04150 1-777 Y735F): T1 sequence (P04150 1-777) with Y735F

[7] = target: T5, wild-type GR (Homo sapiens, UniProt P04150); assay: Transactivation of the MMTV promoter by wild-type GR; assay type: cell-based; conditions: 100 nM
T5 construct: expressed in transfected cells
T5 sequence (P04150 1-777): T1 sequence (P04150 1-777)

[8] = target: T6, GR Tyr735val (Homo sapiens, UniProt P04150, Y735V); assay: Transactivation of the MMTV promoter by mutant GR Tyr735val; assay type: cell-based; conditions: 100 nM
T6 construct: expressed in transfected cells
T6 sequence (P04150 1-777 Y735V): T1 sequence (P04150 1-777) with Y735V

SMILES	selectivity for transrepression over transactivation [1]	desired profile in-vivo [2]	effect on proliferation ([3]; CEM C7A cells)	induction of apoptosis ([3]; CEM C7A cells, 100 nM, three day incubation)	induction of apoptosis ([3]; unpublished data, conditions not given)	activation of the progesterone receptor [4]	induction of MMTV [5]	induction of MMTV [6]	induction of MMTV [7]	induction of MMTV [8]
C[C@@H]1C[C@H]2[C@@H]3CCC4=CC(=O)C=C[C@]4(C)[C@@]3(F)[C@@H](O)C[C@]2(C)[C@H]1C(=O)CC#N [RU24858, reference compound]	2 fold	failed to show the desired profile in-vivo	impaired proliferation	did not induce significant apoptosis	does not induce apoptosis	activating the progesterone receptor				
C[C@]12CCC(=O)C=C1CC[C@@H]1[C@@H]2[C@@H](O)C[C@@]2(C)[C@H]1CC[C@]2(O)C(=O)CO [hydrocortisone]							failed to induce the reporter	11 fold	18 fold	10.6 fold
